Experimental data reported in ChEMBL document CHEMBL1201862, “PubChem BioAssay data set” (2004).
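1) Cells in 96-well plates. 2) Compound, 48 h, 5 concentrations. 3) Linear interpolation between surrounding doses. 4) Unreached endpoint = highest concentration. GI50 = concentration required for 50% inhibition of growth.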 The source made the active and inactive calls. No stated cut-off is given here; in the data, active = GI50 up to about 1.1 µM and inactive = higher.

Key:
Experiment in all cases: inhibition of tumour cell growth, NCI panel, 48 h
MDA-N = system: MDA-N
MDA-MB-435 = system: MDA-MB-435
LOX IMVI = system: LOX IMVI
NCI-H460 = system: NCI-H460
A549 = system: A549
CAKI-1 = system: CAKI-1
OVCAR-5 = system: OVCAR-5
KM12 = system: KM12
UO-31 = system: UO-31
SK-MEL-5 = system: SK-MEL-5
T47D = system: T47D
SN12C = system: SN12C
SF-268 = system: SF-268
EKVX = system: EKVX
HL-60 = system: HL-60
UACC-257 = system: UACC-257
SK-MEL-28 = system: SK-MEL-28
RPMI-8226 = system: RPMI-8226
SNB-19 = system: SNB-19
SR = system: SR

Measured: GI50

O=C(CC(C(=O)c1ccsc1)c1cccs1)c1ccsc1 (stereo not given)
inactive: MDA-N 30.1 µM | MDA-MB-435 34.8 µM | LOX IMVI 34.1 µM | NCI-H460 53.8 µM | A549 46.6 µM | CAKI-1 > 100 µM | OVCAR-5 > 100 µM | KM12 31.5 µM | UO-31 25.8 µM | SK-MEL-5 31.4 µM | T47D 21.4 µM | SN12C 65.6 µM | SF-268 85.9 µM | EKVX 49.9 µM | HL-60 31.8 µM | UACC-257 51.4 µM | SK-MEL-28 76.2 µM | RPMI-8226 12.1 µM | SNB-19 > 100 µM | SR 27.4 µM

CCOc1ccc2c(c1)NC(=O)C(C1OC(c3ccccc3)=CC1=O)S2 (stereo not given)
inactive: MDA-N 25.1 µM | MDA-MB-435 18.5 µM | LOX IMVI 23.2 µM | NCI-H460 16.3 µM | A549 17.3 µM | CAKI-1 34.5 µM | OVCAR-5 16.1 µM | KM12 23.9 µM | UO-31 29.3 µM | SK-MEL-5 18.8 µM | T47D 15.8 µM | SN12C 26.7 µM | SF-268 27.5 µM | EKVX 25.1 µM | HL-60 44.8 µM | UACC-257 56.5 µM | SK-MEL-28 31 µM | RPMI-8226 12 µM | SNB-19 59.8 µM | SR 15.7 µM

NCCC(N)C(=O)O (stereo not given)
inactive: MDA-N > 100 µM | MDA-MB-435 > 100 µM | LOX IMVI > 100 µM | NCI-H460 > 100 µM | A549 > 100 µM | CAKI-1 > 100 µM | OVCAR-5 > 100 µM | KM12 > 100 µM | UO-31 > 100 µM | SK-MEL-5 > 100 µM | T47D > 100 µM | SN12C > 100 µM | SF-268 > 100 µM | EKVX > 100 µM | HL-60 > 100 µM | UACC-257 > 100 µM | SK-MEL-28 > 100 µM | RPMI-8226 > 100 µM | SNB-19 > 100 µM | SR > 100 µM

CCOC(=O)NC(Nc1ccc(S(=O)(=O)Nc2ncccn2)cc1)(C(=O)OCC)C(F)(F)F (stereo not given)
inactive: MDA-N > 100 µM | MDA-MB-435 > 100 µM | LOX IMVI > 100 µM | NCI-H460 > 100 µM | A549 > 100 µM | CAKI-1 > 100 µM | OVCAR-5 > 100 µM | KM12 > 100 µM | UO-31 > 100 µM | SK-MEL-5 > 100 µM | T47D > 100 µM | SN12C > 100 µM | SF-268 > 100 µM | EKVX > 100 µM | HL-60 > 100 µM | UACC-257 > 100 µM | SK-MEL-28 > 100 µM | RPMI-8226 > 100 µM | SNB-19 > 100 µM | SR > 100 µM

O=S(=O)(O)c1ccc2c(/N=N/c3c(O)ccc4ccccc34)cccc2c1
inactive: MDA-N > 100 µM | MDA-MB-435 > 100 µM | LOX IMVI > 100 µM | NCI-H460 > 100 µM | A549 > 100 µM | CAKI-1 > 100 µM | OVCAR-5 > 100 µM | KM12 > 100 µM | UO-31 > 100 µM | SK-MEL-5 > 100 µM | T47D > 100 µM | SN12C > 100 µM | SF-268 > 100 µM | EKVX 61.5 µM | HL-60 > 100 µM | UACC-257 > 100 µM | SK-MEL-28 > 100 µM | RPMI-8226 > 100 µM | SNB-19 > 100 µM | SR > 100 µM
